Data taken from patent publication EP3481220B1, “SWEET RAPESEED PROTEIN ISOLATE AND PROCESS FOR OBTAINING IT” (DSM IP Assets B.V., priority 2016, dated 2018).

Legend:
[1] = Equal sweetness, sensory panel, versus sucrose solutions; assay type: in vivo; conditions: scored against the reference = 50, line scale 0-100
From the text: The flavor characteristics can be evaluated by a sensory panel using techniques known in the art. Investigating the effects of flavor, mouthfeel and aftertaste requires an extended evaluation of the products and this was done by using Quantitative Descriptive Analysis (QDA). Therefore, a sensory panel assessed the protein products taking in account Good Sensory Practices. During the QDA measurement the intensities of the attributes were obtained by the Fizz sensory data acquisition system, using unstructured line scales ranging from 0-100. The products were evaluated twice with 11 panel members. The products were given one-by-one to the panel members. The products were given in a white polystyrene cup with a white polystyrene spoon in order to prevent sedimentation during tasting. Data were analyzed using SenPaq (Ql-statistics).
The panelists received a reference sample (2 wt.% rapeseed protein isolate in water) with a potency designated by an arbitrary sweetness value of 50 (middle of the scale), followed by several sucrose solutions coded and balanced with potencies higher than or lower than the reference. Panelists scored for example a sample that is perceived as twice as strong as the reference with a score of 100, half the sweetness was given a value of 25. Scores were gathered by means of FIZZ data acquisition on unstructured line scales ranging from 0-100. The various concentrations of sucrose were first determined by a pretest.
To identify the sweetness character (i.e. initial sweetness, lingering) of 2% rapeseed protein isolate in water compared to sucrose solutions (10 g/l, 20 g/l, 30 g/l, 40 g/l and 50 g/l) the samples were taken into the mouth on instruction of the panel leader. Directly the intensity of the sweetness was scored. After three seconds the sample was swallowed and the intensity was scored again, followed by scoring at 5, 10, 20, 30, 60, 90 and 120 seconds after swallowing. Intensity scores were given on unstructured 0-100 line scales in FIZZ. The samples were evaluated one-by-one in duplicate according to an optimally balanced design. Equal sweetness and sweetness character was assessed by comparing a 2 wt.% aqueous solution of the resultant native rapeseed protein isolate with aqueous sucrose solutions of different strengths at room temperature.

[2] = Conductivity in aqueous solution (conductivity meter); assay type: physicochemical; conditions: aqueous 5 g/l solution; given for comparison

SMILES	Relative Sweetness ([1]; 10 g/l aqueous solution)	Relative Sweetness ([1]; 20 g/l aqueous solution)	Relative Sweetness ([1]; 30 g/l aqueous solution)	Relative Sweetness ([1]; 40 g/l aqueous solution)	Relative Sweetness ([1]; 50 g/l aqueous solution)	conductivity [2]
OC[C@H]1O[C@@](CO)(O[C@H]2O[C@H](CO)[C@@H](O)[C@H](O)[C@H]2O)[C@@H](O)[C@@H]1O [Sucrose]	35	49	68	70	78	
[Cl-].[Na+] [sodium chloride]						around 9,400 µS/cm
